“And” between values parts separate entries of the source, which are not always exact repeats. Equal values may be shown once. “Also recorded” adds a separate entry of the source. Read-outs that look alike come from different tables or passages of the source.

One data set concerns serum uric acid. Description: Hypouricemic effect in allantoxanamide-treated mice. It counts as in vivo, C57BL/6 mice. The conditions noted are these: Allantoxanamide 200 mg/kg i.p., at both 1.5 hours and 3 hours; Allopurinol 13.3 mg/kg, recipe 41.7 and 83.4 mg/kg. The method, then:
Recipe includes Japanese Thistle Extract, Grape Seed Extract, Amla Fruit Extract, Pine Bark Extract, Chinese Mint Extract and Folic acid. Mice were Intraperitoneally (i.p.)-injected with uricase inhibitor allantoxanamide to induce hyperuricemia in mice. […] Blood was taken from facial vein at 1.5 hour and 3 hour after the treatment. Serum uric acid level was measured the next day with a phosphotunstate method. N=4 per group.
Mouse experiment design, method and results. […] Folic acid solution was prepared separately by dissolving 2.6 mg folic acid in 1 ml 0.1 m potassium phosphate buffer, then 6 ul of this FA solution was added to the 10 ml extract solution.
Adult C57BL/6 mice (about 20 g body weight) were used. Four groups of mice (n=4 per group) were assigned for different treatments or controls (Table 12). Intraperitoneal (i.p.) injection of uricase inhibitor allantoxanamide can effectively block the conversion of uric acid to 5-hydroxyisourate and thus cause a marked increase in serum uric acid levels in mice, providing a hyperuricemic animal model (34). […] Blood was taken from facial vein at 1.5 hours and 3 hours after the treatment. Serum uric acid level was measured with a phosphotunstate method.

Data set [1] concerns the target T1, Xanthine oxidase (XO) (Homo sapiens, UniProt P47989). The data set is described as follows: Xanthine oxidase (XO) inhibition assay in a cell-free system. The conditions noted are these: for XO activity inhibition (in words): increasing concentrations.
Protocol: All 72 herb extracts (100 g) are in the powder form. Each extract was dissolved in water or DMSO respectively with strong votex, at stock concentration of 50 mg/ml. The solution was kept at room temperature for 30 min before centrifugation at 14k rpm. The clear solution was used for assay of XO inhibitory activity. XO activity was determined using the method of continuous spectrophotometric rate measurements (60). The reaction mixture contained xanthine in 67 mM phosphate buffer (pH 7.4) and 20 nM XO with an activity of 5 uU/mL, with or without extract solution. After pre-incubating the extract (at 0-10 ul) with XO for 1 min at 25° C., 50 uM xanthine was added to initiate the formation of uric acid, and the increase of absorption of uric acid at 295 nm was monitored in a dynamic mode. Initial rate of XO activity was recorded. […] For initial screen of herb extracts, final concentration of each extract was 163 ug/ml. Percentage of inhibition is calculated: Percentage of inhibition=(1−test OD/blank OD)×100
XO inhibition assay for folic acid related molecules is similar to that for herb extracts. Folic acids were dissolved in DMSO. Dose-dependent of folic acids and photolysis effect were studied.
Furthermore, we performed a dose dependent XO inhibition assay for each of these 14 extracts (DMSO-soluble fractions). […] IC50 is an operational parameter defined as the concentration of inhibitor required for achieving 50% inhibition of the enzyme.
Folic acid and its two derivatives, dihydrofolic acid and tetrahydrofolic acid, were employed in the XO inhibition assay. When 20 nM XO was mixed with increasing concentrations of folic acid, dihydrofolic acid and tetrahydrofolic acid.
The initial rate of uric acid formation in the reaction system was recorded; and XO inhibition rate of each herb extract was calculated.
Furthermore, a dose dependent XO inhibition assay was performed for each of these 15 extracts. […] IC50 is an operational parameter defined as the concentration of inhibitor required for achieving 50% inhibition of the enzyme.
The next data set has as its system XO. The conditions noted are these: in vitro; cited from earlier work.
For data set [2] the following is noted: cited from earlier work.
The target of data set [3] is T1, Xanthine oxidase (XO). Description: XO inhibition combination assay of herb extract with folic acid or 5-MTHF, added separately without pre-mixing. The conditions noted are these: read-out: XO activity inhibition.
Protocol: All 14 traditional Chinese medicine herb extracts were tested. Folic acid (0.167 uM) and extract (13.3 ug/ml) were separately added into the XO reaction system without pre-mixing. XO activity was measured.
Fresh prepared 5-MTHF (3.3 uM) and herb extract (13.3 ug/ml) was added to XO reaction system separately, XO activity was recorded.
Eight herbal extracts were selected and tested. Folic acid (0.167 uM) and each extract at a defined concentration (ug/ml) were separately added into the XO reaction system without pre-mixing. XO activity was measured.
Based on the result of dose-dependent XO inhibition experiments for herb extracts and folic acid, a relatively small concentration of each extract (a total of 14 extracts) and folic acid were utilized for a combination assay.
Folic acid (0.167 uM) and extract (13.3 ug/ml) were separately added into the XO reaction system without pre-mixing. XO activity was measured.
The inventors also tested the combination of 5-MTHF with different traditional Chinese medicine herb extracts for their effect on XO activity in vitro (FIG. 10).
Based on the result of dose-dependent XO inhibition experiments for herb extracts and folic acid, a relatively small concentration of each of 8 herbal extracts and folic acid were selected for a combination assay. […] XO activity was measured (FIG. 13).

T1 sequence (P47989 whole entry, species assumed): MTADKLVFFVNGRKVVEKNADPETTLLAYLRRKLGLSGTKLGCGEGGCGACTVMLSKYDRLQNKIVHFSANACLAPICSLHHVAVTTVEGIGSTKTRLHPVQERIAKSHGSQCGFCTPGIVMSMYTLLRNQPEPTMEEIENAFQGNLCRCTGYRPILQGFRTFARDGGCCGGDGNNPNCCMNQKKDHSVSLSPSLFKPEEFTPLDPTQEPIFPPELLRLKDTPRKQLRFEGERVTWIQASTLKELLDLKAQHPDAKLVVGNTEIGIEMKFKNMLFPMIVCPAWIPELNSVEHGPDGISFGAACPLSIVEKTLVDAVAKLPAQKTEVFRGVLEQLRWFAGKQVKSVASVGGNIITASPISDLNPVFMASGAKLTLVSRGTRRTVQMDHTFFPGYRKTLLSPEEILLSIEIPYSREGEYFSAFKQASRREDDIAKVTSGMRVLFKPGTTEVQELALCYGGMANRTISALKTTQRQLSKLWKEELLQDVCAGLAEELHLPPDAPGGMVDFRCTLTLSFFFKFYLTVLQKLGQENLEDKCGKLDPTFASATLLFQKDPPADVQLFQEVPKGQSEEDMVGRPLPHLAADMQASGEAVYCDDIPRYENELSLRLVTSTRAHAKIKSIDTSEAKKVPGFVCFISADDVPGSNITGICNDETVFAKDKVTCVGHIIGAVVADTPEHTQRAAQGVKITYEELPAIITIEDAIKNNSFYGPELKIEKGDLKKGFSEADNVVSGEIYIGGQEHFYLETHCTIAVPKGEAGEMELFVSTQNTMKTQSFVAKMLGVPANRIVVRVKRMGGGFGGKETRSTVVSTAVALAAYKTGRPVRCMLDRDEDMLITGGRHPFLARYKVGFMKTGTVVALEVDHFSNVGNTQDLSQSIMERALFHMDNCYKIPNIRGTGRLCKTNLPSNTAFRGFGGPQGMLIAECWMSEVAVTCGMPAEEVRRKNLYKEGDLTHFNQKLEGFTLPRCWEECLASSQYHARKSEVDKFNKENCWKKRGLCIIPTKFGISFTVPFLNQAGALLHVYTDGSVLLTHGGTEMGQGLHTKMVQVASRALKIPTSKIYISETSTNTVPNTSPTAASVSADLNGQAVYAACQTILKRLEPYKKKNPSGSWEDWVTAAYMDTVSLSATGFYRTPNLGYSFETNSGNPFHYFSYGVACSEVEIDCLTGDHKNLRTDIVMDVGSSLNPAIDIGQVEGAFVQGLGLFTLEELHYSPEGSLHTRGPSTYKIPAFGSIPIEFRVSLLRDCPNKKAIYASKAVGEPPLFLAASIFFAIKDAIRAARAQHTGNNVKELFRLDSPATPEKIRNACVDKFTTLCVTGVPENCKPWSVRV

Consider `Oc1ncnc2[nH]ncc12` [Allopurinol], for which the “Serum uric acid levels” value in the data set with serum uric acid was “significantly reduced serum uric acid levels”.
With `CN1c2c(nc(N)[nH]c2=O)NCC1CNc1ccc(C(=O)N[C@@H](CCC(=O)O)C(=O)O)cc1` (stereo partly drawn) [Extract 5-MTHF, 5-methyl tetrahydrofolate], on Xanthine oxidase (XO) [1] (cell-free system), the “XO inhibitory potency relative to a comparator (in words)” value was “weaker than folic acid”. Moreover, the “XO activity inhibition (in words)” value on Xanthine oxidase (XO) [1] (20 nM XO) was “effectively inhibited XO activity; also recorded: inhibited XO activities in a concentration-dependent manner”. The IC50 on Xanthine oxidase (XO) [1] (read-out: IC50 for XO inhibition, 20 nM XO, cell-free system) is ~35.6 µM and 35.6 µM.
On to `Nc1nc2ncc(C=O)nc2c(=O)[nH]1` [6-formyl pterin], for which the “XO inhibitory effect (literature)” value in the data set with XO is reported as “very potent XO inhibitor”.
Consider `Cc1nc(-c2ccc(OCC(C)C)c(C#N)c2)sc1C(=O)O` [febuxostat], for which, in data set [2] (in some studies), the “Patients with transaminase elevations greater than three times the upper limit of normal” value is 2-3%. For the same molecule, in data set [2] (initial clinical studies), the “Patients with cutaneous adverse effects” value is on record as “about 2%”.
In the case of `Nc1nc2c(c(=O)[nH]1)N=C(CNc1ccc(C(=O)N[C@@H](CCC(=O)O)C(=O)O)cc1)CN2` [dihydrofolic acid], the “XO inhibitory effect (literature)” value in the data set with XO is reported as “stronger than that of folic acid”. Also, the “XO inhibitory potency relative to a comparator (in words)” value was “dihydrofolic acid>tetrahydrofolic>folic acid” on Xanthine oxidase (XO) [1] (cell-free system) and “more potent than folic acid” on Xanthine oxidase (XO) [1] (cell-free system, listed as Dihydrofolic acid). On Xanthine oxidase (XO) [1] (20 nM XO), the “XO activity inhibition (in words)” value is recorded as “significantly inhibited XO activity”.
`O=Cc1cc(O)c(O)c([N+](=O)[O-])c1` [DHNB, 3,4-Dihydroxy-5-nitrobenzaldehyde] registered an IC50 at Xanthine oxidase (XO) [1] of 3 µM.
Regarding `Nc1nc2c(c(=O)[nH]1)NC(CNc1ccc(C(=O)N[C@@H](CCC(=O)O)C(=O)O)cc1)CN2` (stereo partly drawn) [tetrahydrofolic acid], the “XO inhibitory effect (literature)” value in the data set with XO is recorded as “stronger than that of folic acid”. Also, the “XO inhibitory potency relative to a comparator (in words)” value at Xanthine oxidase (XO) [1] (cell-free system) is “more potent than folic acid”; at Xanthine oxidase (XO) [1] (cell-free system, listed as tetrahydrofolic), “dihydrofolic acid>tetrahydrofolic>folic acid”. Also, the “XO activity inhibition (in words)” value at Xanthine oxidase (XO) [1] (20 nM XO) is given as “significantly inhibited XO activity”.
For `Nc1nc2ncc(C(=O)O)nc2c(=O)[nH]1` [pterin-6-carboxylic acid], the “XO inhibitory effect (literature)” value in the data set on XO is reported as “no XO inhibitory effect”.
Take `Nc1nc2ncc(CNc3ccc(C(=O)N[C@@H](CCC(=O)O)C(=O)O)cc3)nc2c(=O)[nH]1` [folic acid]: the inhibition at 0.167 µM at Xanthine oxidase (XO) [3] amounted to 16.5%. Besides, the concentration for half-maximal inhibition (IC50) against Xanthine oxidase (XO) [1] was determined as 0.75 µM. On Xanthine oxidase (XO) [1] (cell-free system), the “XO inhibitory potency relative to a comparator (in words)” value was “stronger than Allopurinol and DHNB”. The “XO activity inhibition (in words)” value at Xanthine oxidase (XO) [1] (20 nM XO) was “significantly inhibited XO activity”.

Source of the values: patent US20210386812A1, “DEVELOPMENT OF HEALTH FOOD SUPPLEMENTS AND ANTIOXIDANTS FOR CONTROLLING HYPERURICEMIA AND OXIDATIVE STRESS” (Baylor College of Medicine, priority 2018, published 2021).
